Measurements published in PubChem BioAssay (NCI).
Several values for one entry are separate records, joined by “and”; a condition that tells them apart may be missing. Equal values may be shown once.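 Dose response: 5 concentrations. Exposure: 48 h. Format: 96-well plates. Endpoint: linear interpolation; highest concentration if not reached. GI50: concentration for 50% inhibition of growth. TGI marks complete inhibition of growth.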

The compounds below were run on SK-MEL-28 melanoma (assay: growth of human tumour cells (NCI), 48 h).

Row | SMILES | GI50 [µM] | TGI [µM]
1 | COc1cc2c(cc1OCCCN1CCN(CCCOc3cc4c(cc3OC)C(=O)N3CC(F)(F)C[C@H]3C=N4)CC1)N=C[C@@H]1CC(F)(F)CN1C2=O | 4.28 | 15.2
2 | COC(=O)C1=CN(CC2=CC(=O)C(C)=CC2=O)C=C(C(=O)OC)C1c1ccccc1OC | 28 | > 57.5
3 | O/N=C1\CCCCC1C(NO)c1ccccc1 (stereo not drawn) | – | > 100
4 | COC(=O)/C=C/c1cc(OC(C)=O)c2c(c1)C(C(=O)OC)C(c1ccc(OC(C)=O)c(OC(C)=O)c1)O2 (stereo not drawn) | 0.905 | 59.7
5 | COc1cc(OC)c(OC)cc1/C=N/NC(=O)N/N=C/c1cc(OC)c(OC)cc1OC | – | > 100
6 | O=C(O)c1ccc(CNCc2ccccc2)cc1 | – | > 100
7 | C=C(C)C(C1C=C(CCC(C=O)=C(C)C)C(=O)O1)C1(OC)C=C(C)C(=O)O1 (stereo not drawn) | > 100 | > 100
8 | CCOC(=O)Nc1c(C)nc2ccccn12 | > 100 | > 100
9 | Cc1cc2c(cc1C)[n+](=O)cc(C(=O)C/C(=N/NC(=S)NN)C(=O)Nc1cccc(C(F)(F)F)c1)n2[O-] | – | > 100
10 | COCOCCC#CCO | – | > 100
11 | O=[N+]([O-])c1ccccc1N=Nc1c(O)[nH]c2c(Cl)cc(Cl)cc12 | – | > 100
12 | NC(=S)N/N=C/c1ncccc1O | 5.86 | > 1000
13 | COC(=N)c1csc(C2OC(CO)C(O)C2O)n1 (stereo not drawn) | – | > 100
14 | O=C(CC(=O)Nc1ccccc1)NNC(Sc1ccccc1)c1cc(N=Nc2ccc(Br)cc2)ccc1O (stereo not drawn) | – | > 10
15 | Cc1cc(C(=O)CSC(=S)SC(C)(C)C)ccc1Cl | – | 35.6
16 | C=CC12CCN(CC1)C(C(O)c1ccnc3ccc(OC)cc13)C2 (stereo not drawn) | 79.8 | > 100
17 | Nc1c(S(=O)(=O)c2ccc(Cl)cc2)c2nc3ccccc3nc2n2ccnc12 | – | > 100
18 | O=C(Nc1nc(-c2c[nH]c3ccccc23)cs1)c1n[nH]c(=O)c2ccccc12 | 12.4 | 49.2
19 | CN(C)CCN1CCC(Cc2ccccc2)CC1 | > 80 | > 80
20 | COc1cc2c3c(n(C)c(=O)c2cc1OC)-c1cc2c(cc1C3=O)OCO2 | – | > 100
21 | COc1ccc(/C=C\c2cc(OC)c(OC)c(OC)c2)cc1OCC(=O)O | – | > 100
22 | CO[C@@H]1CC[C@]2(C)OC[C@H](C)[C@@H]3C[C@@H](C)[C@@H](OC(C)=O)[C@@H]4[C@H]3[C@@H]2O[C@H]4C[C@@]1(C)O | > 100 | > 100
23 | Oc1oc(C(=C2N=c3ccccc3=N2)c2ccc(Cl)cc2)c(O)c1-c1ccc(Cl)cc1 | – | 33.7
24 | O=C(Nc1ncc(Cc2cccc(C(F)(F)F)c2)s1)c1ccc2c(c1)OCCO2 | 1.54 | > 100

These compounds were tested on MOLT-4 leukemia (assay: growth of human tumour cells (NCI), 48 h).

Row | SMILES | GI50 [µM] | TGI
25 | COc1cc2c(cc1OCCCN1CCN(CCCOc3cc4c(cc3OC)C(=O)N3CC(F)(F)C[C@H]3C=N4)CC1)N=C[C@@H]1CC(F)(F)CN1C2=O | 2.02 | 8.37 µM
26 | COC(=O)C1=CN(CC2=CC(=O)C(C)=CC2=O)C=C(C(=O)OC)C1c1ccccc1OC | 5.61 | 14.2 µM
27 | O/N=C1\CCCCC1C(NO)c1ccccc1 (stereo not drawn) | – | > 100 µM
28 | COC(=O)/C=C/c1cc(OC(C)=O)c2c(c1)C(C(=O)OC)C(c1ccc(OC(C)=O)c(OC(C)=O)c1)O2 (stereo not drawn) | 0.0582 | > 47.4 µM
29 | COc1cc(OC)c(OC)cc1/C=N/NC(=O)N/N=C/c1cc(OC)c(OC)cc1OC | – | > 100 µM
30 | O=C(O)c1ccc(CNCc2ccccc2)cc1 | – | > 100 µM
31 | C=C(C)C(C1C=C(CCC(C=O)=C(C)C)C(=O)O1)C1(OC)C=C(C)C(=O)O1 (stereo not drawn) | 34.8 | > 100 µM
32 | CCOC(=O)Nc1c(C)nc2ccccn12 | > 100 | > 100 µM
33 | Cc1cc2c(cc1C)[n+](=O)cc(C(=O)C/C(=N/NC(=S)NN)C(=O)Nc1cccc(C(F)(F)F)c1)n2[O-] | – | > 100 µM
34 | COCOCCC#CCO | – | > 100 µM
35 | O=[N+]([O-])c1ccccc1N=Nc1c(O)[nH]c2c(Cl)cc(Cl)cc12 | – | > 87.8 µM
36 | NC(=S)N/N=C/c1ncccc1O | 1.76 | 33.2 µM and 42.7 µM
37 | COC(=N)c1csc(C2OC(CO)C(O)C2O)n1 (stereo not drawn) | – | > 100 µM
38 | O=C(CC(=O)Nc1ccccc1)NNC(Sc1ccccc1)c1cc(N=Nc2ccc(Br)cc2)ccc1O (stereo not drawn) | – | > 10 µM
39 | Cc1cc(C(=O)CSC(=S)SC(C)(C)C)ccc1Cl | – | 62.9 µM
40 | C=CC12CCN(CC1)C(C(O)c1ccnc3ccc(OC)cc13)C2 (stereo not drawn) | > 100 | > 100 µM
41 | Nc1c(S(=O)(=O)c2ccc(Cl)cc2)c2nc3ccccc3nc2n2ccnc12 | – | > 100 µM
42 | O=C(Nc1nc(-c2c[nH]c3ccccc23)cs1)c1n[nH]c(=O)c2ccccc12 | 0.792 | > 35.4 µM
43 | CN(C)CCN1CCC(Cc2ccccc2)CC1 | > 80 | > 80 µM
44 | COc1cc2c3c(n(C)c(=O)c2cc1OC)-c1cc2c(cc1C3=O)OCO2 | – | 54.7 µM
45 | COc1ccc(/C=C\c2cc(OC)c(OC)c(OC)c2)cc1OCC(=O)O | – | > 100 µM
46 | CO[C@@H]1CC[C@]2(C)OC[C@H](C)[C@@H]3C[C@@H](C)[C@@H](OC(C)=O)[C@@H]4[C@H]3[C@@H]2O[C@H]4C[C@@]1(C)O | > 100 | > 100 µM
47 | Oc1oc(C(=C2N=c3ccccc3=N2)c2ccc(Cl)cc2)c(O)c1-c1ccc(Cl)cc1 | – | 7.53 µM
48 | O=C(Nc1ncc(Cc2cccc(C(F)(F)F)c2)s1)c1ccc2c(c1)OCCO2 | 0.67 | > 100 µM

These compounds were tested on K-562 leukemia (assay: growth of human tumour cells (NCI), 48 h).

Row | SMILES | GI50 [µM] | TGI [µM]
49 | COc1cc2c(cc1OCCCN1CCN(CCCOc3cc4c(cc3OC)C(=O)N3CC(F)(F)C[C@H]3C=N4)CC1)N=C[C@@H]1CC(F)(F)CN1C2=O | 1.74 | > 100
50 | COC(=O)C1=CN(CC2=CC(=O)C(C)=CC2=O)C=C(C(=O)OC)C1c1ccccc1OC | 0.495 | 14.9
51 | O/N=C1\CCCCC1C(NO)c1ccccc1 (stereo not drawn) | – | > 100
52 | COC(=O)/C=C/c1cc(OC(C)=O)c2c(c1)C(C(=O)OC)C(c1ccc(OC(C)=O)c(OC(C)=O)c1)O2 (stereo not drawn) | 0.0405 | > 100
53 | COc1cc(OC)c(OC)cc1/C=N/NC(=O)N/N=C/c1cc(OC)c(OC)cc1OC | – | > 100
54 | O=C(O)c1ccc(CNCc2ccccc2)cc1 | – | > 100
55 | C=C(C)C(C1C=C(CCC(C=O)=C(C)C)C(=O)O1)C1(OC)C=C(C)C(=O)O1 (stereo not drawn) | 73.2 | > 100
56 | CCOC(=O)Nc1c(C)nc2ccccn12 | > 100 | > 100
57 | Cc1cc2c(cc1C)[n+](=O)cc(C(=O)C/C(=N/NC(=S)NN)C(=O)Nc1cccc(C(F)(F)F)c1)n2[O-] | – | > 100
58 | COCOCCC#CCO | – | > 100
59 | O=[N+]([O-])c1ccccc1N=Nc1c(O)[nH]c2c(Cl)cc(Cl)cc12 | – | > 100
60 | NC(=S)N/N=C/c1ncccc1O | 2.92 | > 1000
